Data from patent US9532983B2, “Benzofuran compounds, compositions, kits and/or methods thereof” (Savannah State University, priority 2013, dated 2017).
Entries after “also recorded” stand apart in the source; their conditions may differ.

What was measured:
[1] = biological target: T1, M4 (Homo sapiens, UniProt P08173); test: Primary binding assay at non-sigma receptors: M4; details: 10 μM (final) assay concentration
T1 construct: expressed in transfected cells
T1 sequence (P08173 1-479): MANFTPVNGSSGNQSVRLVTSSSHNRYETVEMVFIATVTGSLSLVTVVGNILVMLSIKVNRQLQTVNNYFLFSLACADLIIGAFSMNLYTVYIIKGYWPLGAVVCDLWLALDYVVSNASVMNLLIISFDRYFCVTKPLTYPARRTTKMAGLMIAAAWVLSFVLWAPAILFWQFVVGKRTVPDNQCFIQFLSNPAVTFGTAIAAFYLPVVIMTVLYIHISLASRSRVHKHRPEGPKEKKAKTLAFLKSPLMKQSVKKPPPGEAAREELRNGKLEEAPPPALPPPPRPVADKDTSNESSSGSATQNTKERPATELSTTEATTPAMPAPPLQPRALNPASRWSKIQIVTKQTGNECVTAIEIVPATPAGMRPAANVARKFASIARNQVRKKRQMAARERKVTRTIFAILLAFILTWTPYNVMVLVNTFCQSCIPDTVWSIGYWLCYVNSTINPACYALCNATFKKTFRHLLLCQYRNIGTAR
Description: (§1) Initial primary binding screening assays were performed using a 50 μM (initial)−10 μM (final) assay concentration of reference and test compounds.

[2] = system: σ1 receptor; test: Western blot, expression of σ1 receptor in MA-10 cells; format: cell-based, mouse; details: 24 h, increasing concentrations
Description: Cells were maintained at 37° C. in a humidified incubator under 5% CO2. To isolate mitochondria, cells were removed from tissue culture plates by gentle scrapping in phosphate-buffered saline at room temperature, incubated in hypotonic buffer (10 mM HEPES, pH 7.4) for 30 to 40 min, and mitochondria were isolated following readily available procedures. The mitochondrial preparation was verified by Western blotting with the cytochrome P450 SCC enzyme (Corgen, Tapai, Taiwan) and calnexin antibodies (Santa Cruz Biotechnology, Inc., Santa Cruz, Calif.).
The membrane was blocked with 3% nonfat dry milk for 45 min, probed overnight with the primary antibodies, and then incubated with […] goat anti-rabbit or anti mouse IgG (Thermo Fisher Scientific, Waltham, Mass.). Signals were developed with chemiluminescent reagent (Thermo Fisher Scientific). For loading control of all Western blots, the membrane was stained with β-actin antibody, which was previously independently stained with StAR or 3-β-hydroxysteroid dehydrogenase (3βHSD2) or VDAC1 and VDAC2 antiserum. The band intensity was determined by using Image Quant 5.2 (Phosphorimager; GE Healthcare, Chalfont St. Giles, Buckinghamshire, UK). Densitometric calculation may reflect the ratio of σ1 or VDAC2 and β-actin following an established procedure that is readily available.
In addition, VDAC2 antibody (FIG. 3E) was used to probe and was compared with β-actin expression (FIG. 3F) of the same membrane.

[3] = biological target: T2, σ2 receptor (Rattus norvegicus, UniProt Q5U3Y7); test: Secondary binding assay, Ki determination at σ2 receptor ([3H]DTG, PC12 cell homogenates); details: read-out: σ-2 (Ki)
T2 construct: PC12 cell homogenates for σ2 receptors were added to the wells; endogenous in cells; host or cells: PC12 cell homogenate
T2 sequence (Q5U3Y7 1-176): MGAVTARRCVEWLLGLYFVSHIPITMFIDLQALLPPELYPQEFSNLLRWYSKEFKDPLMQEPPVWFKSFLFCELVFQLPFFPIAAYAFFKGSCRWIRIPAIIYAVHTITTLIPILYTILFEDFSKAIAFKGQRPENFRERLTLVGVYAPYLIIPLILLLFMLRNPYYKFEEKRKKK
Description: Secondary binding assays, Ki determinations were performed by measuring the inhibition of radioligand binding by various concentrations of test and reference compound. […] [^3H]Pentazocine (3 nM) was used as the radioligand for σ1 receptors and [^3H]Ditolyglguanidine (DTG) (1 nM) as the radioligand for σ2 receptors. Aliquots (50 μl) of radioligand were dispensed into the wells of a 96-well plate containing 100 μl of Standard Binding Buffer. Then, duplicate 50-μl aliquots of the test and reference compound dilutions were added. Finally, either crude membrane fractions prepared from rat brain homogenate for σ1 receptors or PC12 cell homogenates for σ2 receptors were added to the wells, and the plates shielded from light to prevent photolysis of light sensitive ligands.
For σ1 receptors, the reactions were incubated at 37° C. for 2.5 h, and for σ2 receptors, the reactions were incubated at room temperature for 2 h. Labeled receptors were harvested by rapid filtration on to Whatman GF/B glass filters pre-soaked with 0.3% polyethyleneimine using 96-well Brandel harvester. Four rapid 500 μl washes are performed with chilled Standard Binding buffer to reduce non-specific binding. Filters were placed in 6-ml scintillation tubes and allowed to dry overnight. EcoScint scintiallation cocktail (National Diagnostics) was added to each tube prior to counting. […] The filter mats were dried, the scintillate melted onto the filters and the radioactivity counted in a Microbeta scintillation counter.
Raw data (dpm) representing total radioligand binding (i.e., specific+nonspecific binding) were plotted as a function of the logarithm of the molar concentration of the competitor (i.e., test or reference compound).

[4] = biological target: T3, 5HT3 (Homo sapiens, UniProt P46098); test: Primary binding assay at non-sigma receptors: 5HT3; details: 10 μM (final) assay concentration
T3 construct: expressed in transfected cells
T3 sequence (P46098 24-478): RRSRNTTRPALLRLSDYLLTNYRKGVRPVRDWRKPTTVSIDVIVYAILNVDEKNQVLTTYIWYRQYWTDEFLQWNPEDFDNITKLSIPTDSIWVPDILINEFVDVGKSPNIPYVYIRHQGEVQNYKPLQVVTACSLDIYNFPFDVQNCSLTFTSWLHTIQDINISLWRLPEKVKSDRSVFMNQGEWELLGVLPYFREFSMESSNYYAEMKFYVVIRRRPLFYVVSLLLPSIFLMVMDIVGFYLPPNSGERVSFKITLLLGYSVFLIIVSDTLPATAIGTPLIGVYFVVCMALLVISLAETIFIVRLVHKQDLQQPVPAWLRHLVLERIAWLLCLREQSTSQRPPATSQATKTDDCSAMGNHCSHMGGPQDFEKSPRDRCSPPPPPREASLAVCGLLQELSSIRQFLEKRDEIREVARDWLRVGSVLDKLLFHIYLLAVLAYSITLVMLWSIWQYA
Description: as §1

[5] = biological target: T4, Alpha2C (Homo sapiens, UniProt P18825); test: Primary binding assay at non-sigma receptors: Alpha2C; details: 10 μM (final) assay concentration
T4 construct: expressed in transfected cells
T4 sequence (P18825 1-462): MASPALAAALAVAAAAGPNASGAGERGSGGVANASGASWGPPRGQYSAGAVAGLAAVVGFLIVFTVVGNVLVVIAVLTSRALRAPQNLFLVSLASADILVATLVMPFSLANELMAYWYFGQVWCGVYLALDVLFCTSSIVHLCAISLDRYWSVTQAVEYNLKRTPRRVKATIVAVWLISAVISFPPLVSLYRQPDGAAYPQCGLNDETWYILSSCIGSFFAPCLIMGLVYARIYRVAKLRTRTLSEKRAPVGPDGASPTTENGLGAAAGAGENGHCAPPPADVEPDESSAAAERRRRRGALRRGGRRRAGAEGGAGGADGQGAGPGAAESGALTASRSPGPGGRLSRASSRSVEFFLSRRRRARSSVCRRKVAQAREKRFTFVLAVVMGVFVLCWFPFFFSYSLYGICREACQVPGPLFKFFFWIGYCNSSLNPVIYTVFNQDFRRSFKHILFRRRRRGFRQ
Description: as §1

SMILES | inhibition at 10 µM [1] | expression of the σ1 receptor (in words) [2] | Ki [3] | inhibition at 10 µM [4] | inhibition at 10 µM [5]
Cc1c(C(=O)N(CCCN2CCCCC2)c2ccccc2)oc2ccccc12 [KSCM-5, 3-Methyl-N-phenyl-N-(3-(piperidin-1-yl)propyl)benzofuran-2-carboxamide] | 43.1% | increased only minimally; also recorded: remained unchanged | 0.016 µM | 2.9% | 61.9%
COc1ccc2c(C)c(C(=O)N(CCCN3CCCCC3)c3ccccc3)oc2c1 [KSCM-11, 6-Methoxy-3-methyl-N-phenyl-N-(3-(piperidin-1-yl)propyl)benzofuran-2-carboxamide] | 68.4% | increased expression; also recorded: moderately increased | 0.041 µM | 7.3% | 49%
COc1cc2oc(C(=O)N(CCCN3CCCCC3)c3ccccc3)c(C)c2cc1OC [KSCM-1, 5,6-Dimethoxy-3-methyl-N-phenyl-N-(3-(piperidin-1-yl)propyl)benzofuran-2-carboxamide] | 54.4% | increased expression; also recorded: increased with increasing concentrations | 0.528 µM | 64.2% | 78.9%
